Assay results taken from patent US20200323828A1, “METHODS OF TREATING BEHAVIOR ALTERATIONS” (Oryzon Genomics, S.A., priority 2017, published 2020).

Legend:
Type in all cases: in vivo
[1] = tested on: isolated Sprague-Dawley male rats; experiment: Resident-intruder (RI) test in the rat isolation rearing model (social withdrawal)
Text: In this model, rats are isolated after weaning on postnatal day 21 (PND21) and deprived of the normal environment that preconditions their social behavior. Isolation in this phase of the development of the rat may lead to behavior alterations, particularly a lack of interest for social interactions, which can be used as a model for human social withdrawal.
(§1) Right after the weaning (post natal day 21-23), 48 Sprague-Dawley male rats were divided in two groups: Control (Non Isolated; n=12), maintained 3-4 animals per cage; Isolated (n=36), 1 animal per cage. Starting on postnatal day (PND) 61, adult isolated male rats were treated with vehicle, Compound 1 at 0.16 mg/kg/day or Compound 1 at 0.48 mg/kg/day (n=12/group) for 5 weeks. Control (non-isolated) animals were treated with vehicle. The administration route was drinking water and the vehicle 1.8% 2-hydroxypropyl-β-cyclodextrin. Drug concentration was adjusted weekly by body weight and water consumption. During the last week of treatment, all animals were tested in the RI (PND94) to evaluate social behavior and, on a different day, in the EPM test (PND87-88) to evaluate anxiety behavior.
The resident-intruder (RI) test was performed following a similar protocol to that described for mice in Example 3 above, as follows: Briefly, the test subject (resident) was maintained in its home cage without bedding changes for one week. […] The session was video-recorded during 15 min, and social interaction (parameters measured: active and passive social interaction, avoidance and time without social interaction) and aggressive behavior of the test subject were analyzed by an experimenter blind to the treatment.
Statistical analysis: Non Isolated and Isolated vehicle groups were compared by t-Test. Among the Isolated groups, different drug treatments were compared by oneway-ANOVA with Dunnet and SNK post-Hoc analysis.

male SAMP8 mice [2] = experiment: Resident-intruder (RI) test in male SAMP8 mice (aggressive behavior)
Experimental: In this study, male SAMP8 animals were treated either with vehicle (n=5), 0.32 (n=8) or 0.96 (n=8) mg/kg/day of Compound 1 for 5 weeks from month 5 of age and then subjected to the RI test. Vehicle (1.8% 2-Hydroxypropyl-β-cyclodextrin, Sigma-Aldrich, Spain) or Compound 1 were administered in drinking water. SAMR1 mice treated with vehicle were included as a control (n=6). All drugs were administered via drinking water and diluted in vehicle. Drug concentration was calculated weekly in function of body weight and corrected in function of drinking water consumption.
The resident-intruder (RI) test was performed as follows: the test subject (resident) was maintained in its home cage without bedding changes for one week. […] The session (20 min) was video-recorded and social interaction (parameters tested: social interaction and rearings) and aggressive behavior (parameters tested: lateral threats, clinch attacks, keep-down behavior, and total attacks as the sum of all three aggressive behavior parameters measured) of the test subject were analyzed by an experimenter blind to the treatment.
(§2) Statistical analysis: SAMR1 and SAMP8 vehicle groups were compared by t-Test. Among the SAMP8 groups, different treatments were compared by oneway-ANOVA with Dunnet and SNK post-Hoc analysis.

male SAMP8 mice [3] = experiment: Elevated plus maze (EPM) test in male SAMP8 mice
Experimental: (§3) Animals (n=8/group) were treated from month 5 of age with vehicle, 0.32 or 0.96 mg/kg/day Compound 1, and by month 7 of treatment they were sequentially submitted to the OF and EPM test at one week intervals.
(§4) Vehicle (1.8% 2-Hydroxypropyl-(3-cyclodextrin, Sigma-Aldrich, Spain) or KDM1A inhibitor (Compound 1) were administered in drinking water. SAMR1 mice treated with vehicle were included as a control (n=8). All drugs were administered via drinking water and diluted in vehicle. Drug concentration was calculated weekly in function of body weight and corrected in function of drinking water consumption.
(§5) Elevated Plus Maze (EPM): The EPM consisted of four arms at right angles to each other connected to a central square and maintained elevated 50 cm above the floor. Two of the opposite arms had high walls (enclosed arms, 30×5×15 cm), whereas the other two were open arms (30×5×0 cm). The animal was placed facing a closed arm, and its movements were video-recorded for 5 min and analyzed by video-tracking using SMART® (v3.0, PanLab, SLU, Spain).
as §2

male SAMP8 mice [4] = experiment: Open field (OF) test in male SAMP8 mice; details: 0.32 or 0.96 mg/kg/day in drinking water
Experimental: as §3, §4
Open Field (OF): A 50×50-cm white plastic arena with 25-cm-high walls was used to analyze spontaneous exploratory behavior. The floor of the apparatus was divided into 25 equal squares. The movements of each animal were video recorded during 5 min. Locomotor activity was analyzed by video-tracking over the captured images using SMART® (v3.0, PanLab, SLU, Spain).
as §2

[5] = tested on: isolated Sprague-Dawley male rats; experiment: Elevated plus maze (EPM) test in the rat isolation rearing model; details: 0.16 or 0.48 mg/kg/day in drinking water
Experimental: as §1
as §5, with “The elevated plus maze (EPM) test was perfomed following a similar protocol to that described for mice in Example 3 above, as follows:” for “Elevated Plus Maze (EPM):”, “46.5×12×42” for “30×5×15”, “(46.5×12×0.3” for “(30×5×0”, “(v2.5.21,” for “(v3.0,”, “Spain). […]” for “Spain).”

female SAMP8 mice = experiment: Three chamber test (TCT) in female SAMP8 mice; details: 0.96 mg/kg/day in drinking water for 4 months
Text: In this test, after adaptation to the thee-chamber arena, a mouse is released into the middle chamber and allowed to explore the other compartments. In the adjacent ‘mouse’ compartment a docile stimulus mouse is situated in a mesh-wire container, while in the other adjacent compartment a similar container is located without stimulus mouse (object compartment). The propensity to approach or avoid the compartment with the stimulus mouse provides a measure of social interaction behavior/sociability. Wild type mice prefer social interaction and spend more time in the mouse compartment in comparison to the object compartment.
In this study, 8-month old female SAMP8 mice were treated either with vehicle (n=9) or 0.96 mg/kg/day of Compound 1 (n=12) for 4 months and then subjected to the TCT. […] Drug concentration was calculated weekly in function of body weight and corrected in function of drinking water consumption.
The TCT was performed in a Plexiglas transparent box with three identical consecutive chambers (15×15×20 cm) with two identical small metallic cages placed in both lateral chambers. […] This habituation time was monitored to avoid animals showing preference for one of the chambers. […] The time spent in each chamber and the time of direct exploration of the novel mice was measured during a total observation time of 10 minutes. […]

Nc1nnc(CN[C@@H]2C[C@H]2c2ccc(OCc3ccccc3)cc2)o1 [Compound 1, 5-((((1R,2S)-2-(4-(benzyloxy)phenyl)cyclopropyl)amino)methyl)-1,3,4-oxadiazol-2-amine]
number of evitations ([1]; isolated rats, 0.16 or 0.48 mg/kg/day in drinking water for 5 weeks, vs non-isolated rats, FIG. 4): restored to normality | time without social interaction ([1]; isolated rats, 0.16 or 0.48 mg/kg/day in drinking water for 5 weeks, FIG. 3): dose dependently reduced | tolerability of doses on long-term treatment ([1]; rats, 0.16 or 0.48 mg/kg/day in drinking water): well-tolerated | number of total attacks (male SAMP8 mice [2]; male SAMP8 mice, 0.32 or 0.96 mg/kg/day in drinking water for 5 weeks, vs vehicle-treated SAMR1, FIG. 1): lowered the number of attacks in SAMP8 mice to SAMR1 levels | number of clinch attacks (male SAMP8 mice [2]; male SAMP8 mice, 0.32 or 0.96 mg/kg/day in drinking water for 5 weeks, vs vehicle-treated SAMR1, FIG. 2): lowered the number of attacks in SAMP8 mice to SAMR1 levels | tolerability of doses on long-term treatment (male SAMP8 mice [2]; mice, 0.32 or 0.96 mg/kg/day in drinking water): well-tolerated | anxiolytic or sedative activity (male SAMP8 mice [3]; conclusion from OF and EPM tests in SAMP8 mice): did not have anxiolytic or sedative activity | time in the open arms of the EPM (male SAMP8 mice [3]; male SAMP8 mice, 0.32 or 0.96 mg/kg/day in drinking water): not significantly modified | locomotor activity (male SAMP8 mice [4]): nor did treatment with Compound 1 significantly affect locomotor activity | effect on anxiety or locomotor activity [5]: did not produce any significant effect | preference for the socialization chamber (mice chamber) over the Object chamber (female SAMP8 mice; vs SAMR1, FIG. 5): restored | time spent exploring a novel mouse (female SAMP8 mice; vs SAMR1, FIG. 6): restored
